For assay [1], the target named is Adenosine A2B (ADORA2B) receptor (Homo sapiens (Human), UniProt P29275). Put plainly: ADORA2B Receptor Binding Assay. To be noted: radioligand binding, membrane stock. Here is the method: ADORA2B Receptor Binding Assay
100 μL of Adenosine A2B membrane stock was dispensed into individual wells of an assay plate. 1 μL of each compound (test compounds, high control compound, low control compound) was then transferred into individual wells, followed by 100 μL of radio-labeled ligand. Plates were then sealed, and incubated at room temperature for 1 hour. Unifilter-96 GF/C filter plates were pre-soaked with 50 μL of 0.5% BSA per well for at least 30 min at room temperature. When binding assays were completed, reaction mixtures were filtered through GF/C plates using a Perkin Elmer Filtermate Harvester, and then each plate was washed 4× with cold wash buffer. Filter plates were then dried for 1 hour at 50° C. After drying, the bottom of the filter plate wells was sealed using Perkin Elmer Unifilter-96 backing seal tape. 50 μL of Perkin Elmer Microscint 20 cocktail was then added, and the top of the filter plate was then sealed using Perkin Elmer TopSeal-A sealing film. ^3H trapped on the filter was counted using a Perkin Elmer MicroBeta2 Reader. Data analysis was performed using GraphPad Prism 5 software, and the “Inhibition[% Control]” was calculated using the following equation: % Inh=(1−Background subtracted Assay value/Background subtracted HC value)*100.

Assay [2] addresses Adenosine A2a (ADORA2A) receptor (Homo sapiens (Human), UniProt P29274). Nature of the assay: ADORA2A Receptor Binding Assay. To be noted: radioligand binding, membrane stock. Here is the method: ADORA1A and ADORA2A Receptor Binding Assay
2 μL of each compound (test compounds, high control compound, low control compound) was transferred into individual wells of an assay plate. Also to each individual well, 98 μL of Adenosine A1a membrane stock (for ADORA1A Receptor Binding Assay) or Adenosine A2a membrane stock (for ADORA2A Receptor Binding Assay) was dispensed, followed by 100 μL of radio-labeled ligand. Plates were then sealed, and incubated at room temperature for 1 hour (for ADORA1A Receptor Binding Assay) or 2 hours (for ADORA2A Receptor Binding Assay). Unifilter-96 GF/C filter plates were pre-soaked with 50 μL of 0.3% PEI per well for at least 30 min at room temperature. When binding assays were completed, reaction mixtures were filtered through GF/C plates using a Perkin Elmer Filtermate Harvester, and then each plate was washed 4× with cold wash buffer. Filter plates were then dried for 1 hour at 50° C. After drying, the bottom of the filter plate wells was sealed using Perkin Elmer Unifilter-96 backing seal tape. 50 μL of Perkin Elmer Microscint 20 cocktail was then added, and the top of the filter plate was then sealed using Perkin Elmer TopSeal-A sealing film. ^3H trapped on the filter was counted using a Perkin Elmer MicroBeta2 Reader. Data analysis was performed using GraphPad Prism 5 software, and the “Inhibition [% Control]” was calculated using the following equation: % Inh=(1−Background subtracted Assay value/Background subtracted HC value)*100.

Each structure is given as a SMILES string. pIC50: −log10 of the molar value.

As a reminder, the pIC50 is the negative decadic logarithm of the IC50, by convention in mol/L. High values mean a low IC50, low ones a high IC50.

Sequence of Adenosine A2a (ADORA2A) receptor (P29274 whole entry): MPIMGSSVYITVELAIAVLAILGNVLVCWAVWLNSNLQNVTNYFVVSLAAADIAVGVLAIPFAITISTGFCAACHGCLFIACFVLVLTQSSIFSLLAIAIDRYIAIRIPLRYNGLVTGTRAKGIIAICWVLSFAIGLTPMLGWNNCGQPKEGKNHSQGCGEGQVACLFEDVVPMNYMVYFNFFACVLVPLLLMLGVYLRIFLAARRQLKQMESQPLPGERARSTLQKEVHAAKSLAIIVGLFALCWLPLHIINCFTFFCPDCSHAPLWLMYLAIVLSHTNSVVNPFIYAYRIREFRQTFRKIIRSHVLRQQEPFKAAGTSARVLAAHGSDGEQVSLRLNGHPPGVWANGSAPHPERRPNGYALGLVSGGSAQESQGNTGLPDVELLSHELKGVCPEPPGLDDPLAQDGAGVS
Sequence of Adenosine A2B (ADORA2B) receptor (P29275 whole entry): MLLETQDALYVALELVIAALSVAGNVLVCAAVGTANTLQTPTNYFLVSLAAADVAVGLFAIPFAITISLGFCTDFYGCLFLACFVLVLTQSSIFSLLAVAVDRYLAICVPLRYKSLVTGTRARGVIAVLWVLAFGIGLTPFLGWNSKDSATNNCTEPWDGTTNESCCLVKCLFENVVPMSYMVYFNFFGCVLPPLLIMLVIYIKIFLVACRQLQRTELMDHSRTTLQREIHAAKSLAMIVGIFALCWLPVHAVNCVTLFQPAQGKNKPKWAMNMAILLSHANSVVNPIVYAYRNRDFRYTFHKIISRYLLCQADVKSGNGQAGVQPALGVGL

For the compound `CC(=O)Nc1cc2nc(C)nn2c(-c2cccc(C(C)=O)c2)n1` [Compound 93, N-[5-(3-acetylphenyl)-2-methyl-[1,2,4]triazolo[1,5-c]pyrimidin-7-yl]acetamide], the pIC50 in assay [1] and in assay [2] was below 6.00 in each case.
`CC(=O)Nc1cc2nc(C)nn2c(-c2cnn(C)c2)n1` [Compound 71, N-[2-methyl-5-(1-methylpyrazol-4-yl)-[1,2,4]triazolo[1,5-c]pyrimidin-7-yl]acetamide]: the pIC50 in assay [1] and in assay [2] was below 6.00 in each case.
For the compound `CC(C)c1nc2c(-c3ccccc3)nc(N)c(Cl)n2n1` [Compound 177, 5-chloro-8-phenyl-2-propan-2-yl-[1,2,4]triazolo[1,5-a]pyrazin-6-amine], the pIC50 in assay [1] and in assay [2] was above 8.00 throughout.
With `CC(=O)Nc1cc2nc(C(C)C)nn2c(-c2ccc(C)o2)n1` [Compound 34, N-[5-(5-methylfuran-2-yl)-2-propan-2-yl-[1,2,4]triazolo[1,5-c]pyrimidin-7-yl]acetamide], the pIC50 in assay [1] and in assay [2] was above 8.00 each time.
In the case of `Cc1nc2cc(NC(=O)OC(C)(C)C)nc(-c3ccc(S(=O)(=O)N(C)C)cc3)n2n1` [Compound 118, tert-butyl N-[5-[4-(dimethylsulfamoyl)phenyl]-2-methyl-[1,2,4]triazolo[1,5-c]pyrimidin-7-yl]carbamate], the negative-log IC50 (pIC50) in assay [1] and in assay [2] was below 6.00 in each case.
As to `Cc1nc2c(C)c(NC(=O)C3CC3)nc(-c3ccc(C)o3)n2n1` [Compound 19, N-[2,8-dimethyl-5-(5-methylfuran-2-yl)-[1,2,4]triazolo[1,5-c]pyrimidin-7-yl]cyclopropanecarboxamide], the pIC50 in assay [1] was 6.00 to 7.00; in assay [2] it was 7.00 to 8.00.
For `CC(=O)Nc1cn2nc(C)nc2c(-c2ccco2)n1` [Compound 179, N-[8-(furan-2-yl)-2-methyl-[1,2,4]triazolo[1,5-a]pyrazin-6-yl]acetamide], in that order: above 8.00 and above 8.00.
For `CC(=O)Nc1cc2nc(CF)nn2c(-c2ccco2)n1` [Compound 139, N-[2-(fluoromethyl)-5-(furan-2-yl)-[1,2,4]triazolo[1,5-c]pyrimidin-7-yl]acetamide], in that order: 7.00 to 8.00 and above 8.00.
On the same counts, the results for `Cc1ccc(-c2nc(N)cn3c(C)cnc23)o1` [Compound 198, 3-methyl-8-(5-methylfuran-2-yl)imidazo[1,2-a]pyrazin-6-amine] are below 6.00 and below 6.00.
For the compound `CC(=O)Nc1cc2nc(C(F)F)nn2c(-c2ccc(C)o2)n1` [Compound 126, N-[2-(difluoromethyl)-5-(5-methylfuran-2-yl)-[1,2,4]triazolo[1,5-c]pyrimidin-7-yl]acetamide], the negative-log IC50 (pIC50) in assay [1] and in assay [2] was above 8.00 in each case.
Consider `Cc1cn2cc(N)nc(-c3ccc(C)o3)c2n1` [Compound 200, 2-methyl-8-(5-methylfuran-2-yl)imidazo[1,2-a]pyrazin-6-amine], for which the pIC50 in assay [1] and in assay [2] was 6.00 to 7.00 in each case.
Regarding `Cc1nc2c3cccnc3nc(-c3ccc(C)o3)n2n1` [Compound 136, 4-methyl-7-(5-methylfuran-2-yl)-3,5,6,8,10-pentazatricyclo[7.4.0.0^2,6]trideca-1(9),2,4,7,10,12-hexaene], the negative-log IC50 (pIC50) in assay [1] and in assay [2] was below 6.00 each time.
For `Cc1nc2c(-c3ccc(F)cc3)nc(N)c(Cl)n2n1` [Compound 170, 5-chloro-8-(4-fluorophenyl)-2-methyl-[1,2,4]triazolo[1,5-a]pyrazin-6-amine], the pIC50 is 7.00 to 8.00 in assay [1] and above 8.00 in assay [2].
Regarding `Cc1ccc(-c2nc(N)c(Cl)n3cc(C)nc23)cc1` [Compound 214, 5-chloro-2-methyl-8-(4-methylphenyl)imidazo[1,2-a]pyrazin-6-amine], the negative logarithm of the IC50 (pIC50) in assay [1] and in assay [2] was 6.00 to 7.00 throughout.
In the case of `Cc1nc2cc(NC(=O)C(C)(C)C)nc(-c3ccc(C)o3)n2n1` [Compound 6, 2,2-dimethyl-N-[2-methyl-5-(5-methylfuran-2-yl)-[1,2,4]triazolo[1,5-c]pyrimidin-7-yl]propanamide], the pIC50 in assay [1] is below 6.00; in assay [2] it was above 8.00.
With `Cc1nc2cc(NC(=O)C(F)F)nc(-c3ccco3)n2n1` [Compound 144, 2,2-difluoro-N-[5-(furan-2-yl)-2-methyl-[1,2,4]triazolo[1,5-c]pyrimidin-7-yl]acetamide], the pIC50 in assay [1] and in assay [2] was above 8.00 throughout.
For `Cc1nc2cc(NC(=O)NCCN3CCCC3)nc(-c3ccco3)n2n1` [Compound 157, 1-[5-(furan-2-yl)-2-methyl-[1,2,4]triazolo[1,5-c]pyrimidin-7-yl]-3-(2-pyrrolidin-1-ylethyl)urea], the negative logarithm of the IC50 (pIC50) was 7.00 to 8.00 in assay [1] and above 8.00 in assay [2].
On the same counts, the results for `Cc1nc2cc(NC(=O)NC(C)C)nc(-c3ccco3)n2n1` [Compound 163, 1-[5-(furan-2-yl)-2-methyl-[1,2,4]triazolo[1,5-c]pyrimidin-7-yl]-3-propan-2-ylurea] are 7.00 to 8.00 and above 8.00.
Regarding `Cc1ccc(-c2nc(N)cc3nc(C(F)(F)F)nn23)o1` [Compound 21, 5-(5-methylfuran-2-yl)-2-(trifluoromethyl)-[1,2,4]triazolo[1,5-c]pyrimidin-7-amine], the negative logarithm of the IC50 (pIC50) in assay [1] is 7.00 to 8.00; in assay [2] it was above 8.00.
On the same counts, the results for `CC(=O)c1cccc(-c2nc(NC(=O)C3CC3)cc3nc(C)nn23)c1` [Compound 96, N-[5-(3-acetylphenyl)-2-methyl-[1,2,4]triazolo[1,5-c]pyrimidin-7-yl]cyclopropanecarboxamide] are 6.00 to 7.00 and 6.00 to 7.00.
As for `CNC(=O)Nc1cn2cc(C)nc2c(-c2ccco2)n1` [Compound 217, 1-[8-(furan-2-yl)-2-methylimidazo[1,2-a]pyrazin-6-yl]-3-methylurea], the pIC50 in assay [1] and in assay [2] was 7.00 to 8.00 throughout.
On to `CC(=O)Nc1cc2nc(C)nn2c(-c2ccoc2)n1` [Compound 72, N-[5-(furan-3-yl)-2-methyl-[1,2,4]triazolo[1,5-c]pyrimidin-7-yl]acetamide], for which the pIC50 was below 6.00 in assay [1] and 6.00 to 7.00 in assay [2].
For `COc1ccc(Cc2nc3cc(N)nc(-c4ccc(C)o4)n3n2)cc1` [Compound 3, 2-[(4-methoxyphenyl)methyl]-5-(5-methylfuran-2-yl)-[1,2,4]triazolo[1,5-c]pyrimidin-7-amine], in that order: 6.00 to 7.00 and 7.00 to 8.00.
On to `CC(=O)c1cccc(-c2nc(N)cc3nc(C)nn23)c1` [Compound 95, 1-[3-(7-amino-2-methyl-[1,2,4]triazolo[1,5-c]pyrimidin-5-yl)phenyl]ethanone], for which the negative logarithm of the IC50 (pIC50) in assay [1] and in assay [2] was below 6.00 in each case.
Regarding `Cc1ccc(-c2nc(NC(=O)C3CC3)cn3nc(CF)nc23)o1` [Compound 190, N-[2-(fluoromethyl)-8-(5-methylfuran-2-yl)-[1,2,4]triazolo[1,5-a]pyrazin-6-yl]cyclopropanecarboxamide], the pIC50 in assay [1] and in assay [2] was above 8.00 each time.
Take `Cc1nc2c(Br)c(N)nc(-c3ccc(C)o3)n2n1` [Compound 16, 8-bromo-2-methyl-5-(5-methylfuran-2-yl)-[1,2,4]triazolo[1,5-c]pyrimidin-7-amine]: the pIC50 in assay [1] and in assay [2] was above 8.00 in each case.
Consider `Cc1nc2cc(N)nc(-c3ccc(F)c(F)c3)n2n1` [Compound 130, 5-(3,4-difluorophenyl)-2-methyl-[1,2,4]triazolo[1,5-c]pyrimidin-7-amine], for which the negative logarithm of the IC50 (pIC50) is 6.00 to 7.00 in assay [1] and 7.00 to 8.00 in assay [2].
On the same counts, the results for `CNc1nc(-c2ccc(C)o2)n2nc(C)nc2c1Cl` [Compound 23, 8-chloro-N,2-dimethyl-5-(5-methylfuran-2-yl)-[1,2,4]triazolo[1,5-c]pyrimidin-7-amine] are below 6.00 and 6.00 to 7.00.
On the same counts, the results for `Cc1ccc(-c2nc(NC(=O)C3CC3)cc3nc(-c4ccco4)nn23)o1` [Compound 67, N-[2-(furan-2-yl)-5-(5-methylfuran-2-yl)-[1,2,4]triazolo[1,5-c]pyrimidin-7-yl]cyclopropanecarboxamide] are 7.00 to 8.00 and above 8.00.
On the same counts, the results for `CC(=O)c1cccc(-c2nc(N)c(Cl)c3nc(C)nn23)c1` [Compound 105, 1-[3-(7-amino-8-chloro-2-methyl-[1,2,4]triazolo[1,5-c]pyrimidin-5-yl)phenyl]ethanone] are 6.00 to 7.00 and 7.00 to 8.00.
